Measured values as given in PubChem BioAssay (NCI).
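Where inhibition never reached the appropriate level, the endpoint shown equals the highest concentration tested. Otherwise, values were interpolated linearly from a five-concentration, 48-hour dose response in 96-well plates. Here, GI50 denotes the concentration required for 50% inhibition of growth. TGI is the concentration that stops growth completely.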

How the values were obtained:
Test in all cases: NCI anticancer screen, dose series, 48 h
A549 NSCLC = test system: A549 NSCLC
DLD-1 colon = test system: DLD-1 colon
DMS 273 small cell lung = test system: DMS 273 small cell lung
HL-60(TB) leukemia = test system: HL-60(TB) leukemia
HT29 colon = test system: HT29 colon
IGROV1 ovarian = test system: IGROV1 ovarian
OVCAR-3 ovarian = test system: OVCAR-3 ovarian
SNB-75 CNS = test system: SNB-75 CNS
SR leukemia = test system: SR leukemia
UO-31 renal = test system: UO-31 renal

SMILES | TGI (A549 NSCLC) [µM] | TGI (DLD-1 colon) [µM] | TGI (DMS 273 small cell lung) [µM] | TGI (HL-60(TB) leukemia) [µM] | TGI (HT29 colon) [µM] | TGI (IGROV1 ovarian) [µM] | TGI (OVCAR-3 ovarian) [µM] | TGI (SNB-75 CNS) [µM] | TGI (SR leukemia) [µM] | TGI (UO-31 renal) [µM] | GI50 (A549 NSCLC) [µM] | GI50 (HL-60(TB) leukemia) [µM] | GI50 (HT29 colon) [µM] | GI50 (IGROV1 ovarian) [µM] | GI50 (OVCAR-3 ovarian) [µM] | GI50 (SNB-75 CNS) [µM] | GI50 (SR leukemia) [µM] | GI50 (UO-31 renal) [µM]
COc1ccccc1NC(=O)C1=C(C)NC(C)=C(C(=O)Nc2ccccc2OC)C1c1cccc2c1OCO2 | > 100 | > 100 | > 100 | > 100 | > 100 | > 100 | > 100 | 50.9 | > 100 | > 100 |  |  |  |  |  |  |  | 
COc1cc2c(c(OC)c1OC)-c1ccc(SC)c(=O)cc1C(CC(=O)Oc1cccc(C#N)c1)C2 (stereo unspecified) | > 100 | > 100 | > 100 | 2.35 | 0.796 | > 100 | 0.794 |  | 56.3 | > 100 |  |  |  |  |  |  |  | 
CCOC(=O)[C@H]1Nc2ccc(Cl)cc2[C@H]2c3ccccc3O[C@H]21 | > 100 | > 100 | > 100 |  | > 100 | > 100 | > 100 | > 100 | > 100 | > 100 |  |  |  |  |  |  |  | 
COC(=O)C1=Cc2c(cc(OC)c(OC)c2OC)[C@H](c2ccc(OC)c(OC)c2OC)C1C(=O)OC (stereo partly specified) | > 100 | > 100 | > 100 | > 100 | > 100 | > 100 | > 100 | > 100 | > 100 | > 100 |  |  |  |  |  |  |  | 
Cc1cc2c(cc1Br)C1(C)CCC(C)C1(C)O2 (stereo unspecified) | > 100 | > 100 | 50.4 | 34.1 | > 100 | > 100 | 53.2 | > 100 | 30.5 | > 100 |  |  |  |  |  |  |  | 
Clc1cc(Cl)cc(Nc2nc3ccccc3nc2-c2cccs2)c1 | > 100 | > 100 | 27.2 | > 100 | 26.9 |  | 72 | > 100 | > 100 | > 100 |  |  |  |  |  |  |  | 
C[Si]12OCCCN(CCO1)CCO2 | > 100 | > 100 | > 100 |  | > 100 | > 100 | > 100 | > 100 | > 100 | > 100 |  |  |  |  |  |  |  | 
O=C(O)CCCNS(=O)(=O)c1ccc2ccccc2c1 | > 100 | > 100 | > 100 | > 100 | > 100 | > 100 | > 100 | > 100 |  | > 100 |  |  |  |  |  |  |  | 
CC1=CC2CC(C)C1(C)CCc1ccoc12 (stereo unspecified) | > 100 | > 100 | > 100 | > 100 | > 100 | > 100 | > 100 | > 100 | > 100 | > 100 |  |  |  |  |  |  |  | 
NC1=C(Cl)C(=O)c2ccccc2C1=O | 8.44 | 37.9 | 18.9 | 45.4 | 30.4 | 26 | 7.29 | 27.3 | 32.9 | 29.9 |  |  |  |  |  |  |  | 
CC(=O)O[C@H]1CC[C@@]2(C)C(=CC[C@@H]3C2CC[C@]2(C)Nc4[nH]ncc4CC32)C1 (stereo partly specified) | > 100 | 93.8 | 31.8 | 53.5 | 30.6 | > 100 | 36.5 | > 100 |  | > 100 |  |  |  |  |  |  |  | 
O=C(O)c1ccc(C2C3C=CC(C3)C2[N+](=O)[O-])cc1 (stereo unspecified) | > 100 | > 100 | > 100 | > 100 | > 100 | > 100 | > 100 | > 100 |  | > 100 |  |  |  |  |  |  |  | 
CC1CC2(CCC1OCc1ccccc1)OCCO2 (stereo unspecified) | > 100 | > 100 | > 100 | > 100 | > 100 | > 100 | > 100 |  |  | > 100 |  |  |  |  |  |  |  | 
CN(CCN(C)C(=O)CCOS(C)(=O)=O)C(=O)CCOS(C)(=O)=O | > 100 | > 100 | > 100 | > 100 | > 100 | > 100 | > 100 | > 100 | > 100 |  |  |  |  |  |  |  |  | 
OCc1ccc(Oc2c3ccccc3nc3occc23)cc1 | > 100 |  |  | 79.6 | > 100 | > 100 | 39.7 | 89.8 | > 100 | > 100 | 36.5 | 27.2 | 28.6 | 45.6 | 22.1 | 31.7 | 38.5 | 77.2
COc1ccc2c(c1)[C@@]1(C)CCC3c4ccc(O)cc4CCC3C1C2 (stereo partly specified) | 32.2 |  |  | 39.1 | 17.5 | 48.2 | 29.1 | 30.9 | > 100 | 30.9 | 12.6 | 18.1 | 3.96 | 20.6 | 14.7 | 16.6 | 16.3 | 12.8
COc1ccccc1NC(=O)CC(=O)NNCC(=O)Nc1nnc(-c2ccccc2)o1 | > 100 | > 100 | > 100 |  | > 100 | > 100 | > 100 | > 100 | > 100 | > 100 |  |  |  |  |  |  |  | 
CC(C)=CC1CC(C)C2(CCC3(C)CC4C(C(=O)CC4(C)O)/C(C=O)=C\CC32)O1 (stereo unspecified) | 0.215 |  |  | 0.0576 | 0.102 | 0.296 | 0.0503 | 0.237 | 0.0945 | 0.0989 |  |  |  |  |  |  |  | 
Cn1c(=O)oc2cc(C3CCC(=O)N3Cc3ccc(Cl)cc3)ccc21 (stereo unspecified) | > 100 | > 100 | > 100 | > 100 | > 100 | > 100 |  | > 100 | > 100 | > 100 |  |  |  |  |  |  |  | 
COc1cc(-c2n/c(=C\c3c(O)[nH]c4ccccc34)cc3c2=Nc2ccccc2-3)cc(OC)c1OC | > 100 |  |  | 5.03 | 2.53 | > 24.5 | 2.6 | > 100 | > 29.1 | > 100 | 0.675 | 2.16 | 0.407 | 2 | 0.506 | 0.381 | 0.692 | 2.5
COc1ccc2c(c1)CCCC1C3=NCCC3(C)CSC21 (stereo unspecified) | > 100 |  | > 100 | 44.7 | > 100 | > 100 | > 100 | > 100 |  |  |  |  |  |  |  |  |  | 
